Test results as given in patent US20250382631A1, “PROTAC-CID SYSTEMS FOR USE IN MULTIPLEX GENE REGULATION” (William Marsh Rice University, priority 2022, published 2025).

Tested on: mutated Cre gene with 2-bp micro-deletion / GFP expression in HEK293T cells
Experiment: Inducible prime editing repair of micro-deleted Cre, GFP reporter
Type: cell-based, human
Conditions: 100 nM dTAG-13, FIGS. 3F and 18
Experimental: Fluorescence assay using flow cytometry analysis. Cells were treated with 0.05% Trpsin EDTA (Thermo Fisher Scientific no. 25300054) or TrypLE (Thermo Fisher Scientific no. 12605028) after transfection and centrifuged at 3000 g for 5 min. Supernatant was removed and the cell pellet was resuspended with 200 μL phosphate buffered saline (PBS) without calcium and magnesium (Thermo Fisher Scientific no. 10010023). Cells were transferred into 12×75 mm flow tubes (Global Scientific no. 110410). Cells were analyzed by MA900 flow cytometry (SONY). 405 nm laser (FL6 filter) was used for testing the BFP channel. 488 nm (FL1 filter) was used for testing the EYFP and GFP channel. Automated alignment using Automatic Setup Beads kit (SONY no. LE-B3001) is performed before running samples. In FIGS. 3A, 3B, and 17, experiments were performed under 2% FSC, 17% BSC, 24% FL1. […] Flow cytometry data was processed and analyzed by FlowJo 10. […] The mean intensity of the reporter fluorescent protein (BFP and EYFP) in viable and single cell populations were calculated by FlowJo 10 as the mean of FL6-A and FL1-A. When calculating the fold change of relative fluorescence units (RFU), the relative fluorescence units of EYFP was calculated by dividing the mean of fluorescence intensity of EYFP with the mean of BFP fluorescence intensity for normalization as the following formula: […]

SMILES: CC[C@H](C(=O)N1CCCC[C@H]1C(=O)O[C@H](CCc1ccc(OC)c(OC)c1)c1ccccc1OCC(=O)NCCCCCCOc1cccc2c1C(=O)N(C1CCC(=O)NC1=O)C2=O)c1cc(OC)c(OC)c(OC)c1 (stereo partly shown) [dTAG-13]
- increase in GFP expression (prime editing repair of micro-deleted Cre): more than 25 fold
